The text below walks through data of patent publication US8093400B2, “Compounds useful in therapy” (Pfizer Inc., priority 2003, dated 2012).

This assay deals with human V1A receptor (Homo sapiens, UniProt P37288). Put plainly: V1A filter binding assay ([3H]-AVP binding to CHO-hV1A membranes). The note with it: screen 1.0, [3H]-AVP binding to CHO-hV1A membranes. Here is the method:
1.0 V1A Filter Binding Assay
Receptor binding assays were performed on cellular membranes prepared from CHO cells stably expressing the human V1A receptor, (CHO-hV1A). The CHO-hV1A cell line was kindly provided under a licensing agreement by Marc Thibonnier, Dept. of Medicine, Case Western Reserve University School of Medicine, Cleveland, Ohio. CHO-hV1A cells were routinely maintained at 37° C. in humidified atmosphere with 5% CO2 in DMEM/Hams F12 nutrient mix supplemented with 10% fetal bovine serum, 2 mM L-glutamine, 15 mM HEPES and 400 μg/ml G418. For bulk production of cell pellets, adherent CHO-hV1A cells were grown to confluency of 90-100% in 850 cm^2 roller bottles containing a medium of DMEM/Hams F12 Nutrient Mix supplemented with 10% fetal bovine serum, 2 mM L-glutamine and 15 mM HEPES. Confluent CHO-hV1A cells were washed with phosphate-buffered saline (PBS), harvested into ice cold PBS and centrifuged at 1,000 rpm. Cell pellets were stored at −80° C. until use. Cell pellets were thawed on ice and homogenised in membrane preparation buffer consisting of 50 mM Tris-HCl, pH 7.4, 5 mM MgCl2 and supplemented with a protease inhibitor cocktail, (Roche). The cell homogenate was centrifuged at 1000 rpm, 10 min, 4° C. and the supernatant was removed and stored on ice. The remaining pellet was homogenised and centrifuged as before. The supernatants were pooled and centrifuged at 25,000×g for 30 min at 4° C. […] Protein concentration was determined using Bradford reagent and BSA as a standard.
Protein linearity followed by saturation binding studies were performed on each new batch of membrane. […] Saturation binding studies were then performed using various concentrations of [^3H]-arginine vasopressin, [^3H]-AVP (0.05 nM-100 nM) and the Kd and Bmax determined.
Compounds were tested for their effects on [^3H]-AVP binding to CHO-hV1A membranes, (^3H-AVP; specific activity 65.5 Ci/mmol; NEN Life Sciences). […] The plates were sealed and counted on a TopCount Microplate Scintillation Counter (Packard Instruments). Non-specific binding (NSB) was determined using 1 μM unlabelled d(CH2)5Tyr(Me)AVP ([β-mercapto-β,β-cyclopentamethylenepropionyl,0-Me-Tyr^2,Arg^8]-vasopressin) (βMCPVP), (Sigma). The radioligand binding data was analysed using a four parameter logistic equation with the min forced to 0%. […] Specific binding was calculated by subtracting the mean NSB cpm from the mean Total cpm. For test compounds the amount of ligand bound to the receptor was expressed as % bound=(sample cpm−mean NSB cpm)/specific binding cpm×100. […] The inhibitory dissociation constant (Ki) was calculated using the Cheng-Prusoff equation: Ki=IC50/(1+[L]/Kd) where [L] is the concentration of ligand present in the well and Kd is the dissociation constant of the radioligand obtained from Scatchard plot analysis. […]

Chain of human V1A receptor (P37288 whole entry): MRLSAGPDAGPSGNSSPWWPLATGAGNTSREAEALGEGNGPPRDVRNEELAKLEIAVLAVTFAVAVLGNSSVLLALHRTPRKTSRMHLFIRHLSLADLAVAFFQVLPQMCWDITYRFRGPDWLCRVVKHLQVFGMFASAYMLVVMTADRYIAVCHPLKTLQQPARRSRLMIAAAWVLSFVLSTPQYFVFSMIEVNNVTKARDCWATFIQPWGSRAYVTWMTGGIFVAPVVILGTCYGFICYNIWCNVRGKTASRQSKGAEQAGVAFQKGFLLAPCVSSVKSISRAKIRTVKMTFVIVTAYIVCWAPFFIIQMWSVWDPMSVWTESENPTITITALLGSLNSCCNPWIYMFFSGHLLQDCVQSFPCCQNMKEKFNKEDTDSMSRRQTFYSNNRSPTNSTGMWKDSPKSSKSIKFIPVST

Take `O=C(c1cc(F)cc(F)c1)N1CCC(c2nnc(Cn3nccn3)n2-c2ccc(Cl)cc2)CC1` [Example 165, {4-[4-(4-Chloro-phenyl)-5-[1,2,3]triazol-2-ylmethyl-4H-[1,2,4]triazol-3-yl]-piperidin-1-yl}-(3,5-difluoro-phenyl)-methanone]: the affinity corresponds to a Ki of 2.98 nM. Regarding `O=C(c1ccc(C(F)F)cc1)N1CCC(c2nnc(Cn3nccn3)n2-c2ccc(Cl)cc2)CC1` [Example 206, {4-[4-(4-Chloro-phenyl)-5-[1,2,3]triazol-2-ylmethyl-4H-[1,2,4]triazol-3-yl]-piperidin-1-yl}-(4-difluoromethyl-phenyl)-methanone], the Ki (commonly the equilibrium dissociation constant of an inhibitor or competing ligand from its target) stood at 2.43 nM.

`O=C(c1cc(Cl)ccc1F)N1CCC(c2nnc(Cn3nccn3)n2-c2ccc(Cl)cc2)CC1` [Example 399, (5-Chloro-2-fluoro-phenyl)-{4-[4-(4-chloro-phenyl)-5-[1,2,3]triazol-2-ylmethyl-4H-[1,2,4]triazol-3-yl]-piperidin-1-yl}-methanone] had a Ki of 1.99 nM. Turning to `O=C(c1n[nH]c2ccccc12)N1CCC(c2nnc(Cn3nccn3)n2-c2ccc(Cl)cc2)CC1` [Example 405, {4-[4-(4-Chloro-phenyl)-5-[1,2,3]triazol-2-ylmethyl-4H-[1,2,4]triazol-3-yl]-piperidin-1-yl}-(1H-indazol-3-yl)-methanone], the affinity corresponds to a Ki of 1.11 nM.
